Source: BigSolDB 2.1

O=C(O)c1cccc(C(=O)O)c1
Conditions | solubility (mole fraction)
in ethanol, 294.35 K | 0.004
in ethanol, 296.95 K | 0.0042
in ethanol, 298.15 K | 0.0043
in ethanol, 300.55 K | 0.0047
in ethanol, 306.15 K | 0.0051
in ethanol, 308.85 K | 0.0053
in ethanol, 310.85 K | 0.0056
in ethanol, 313.65 K | 0.0063
in ethanol, 318.35 K | 0.0068
in ethanol, 320.45 K | 0.0072
in ethanol, 324.15 K | 0.0075
in ethanol, 326.75 K | 0.0078
in ethanol, 330.85 K | 0.0085
in ethanol, 331.75 K | 0.0089
in ethanol, 335.05 K | 0.0093
in isobutanol, 318.65 K | 0.0025
in isobutanol, 323.55 K | 0.0033
in isobutanol, 327.85 K | 0.004
in isobutanol, 331.05 K | 0.0047
in isobutanol, 336.15 K | 0.0055
in isobutanol, 340.05 K | 0.0061
in isobutanol, 343.05 K | 0.0066
in isobutanol, 346.65 K | 0.0072
in isobutanol, 348.95 K | 0.0079
in isobutanol, 351.05 K | 0.0085
in isobutanol, 355.05 K | 0.0092
in isobutanol, 356.05 K | 0.0098
in isobutanol, 360.75 K | 0.0108
in isopropanol, 304.65 K | 0.0046
in isopropanol, 308.45 K | 0.0052
in isopropanol, 310.95 K | 0.0057
in isopropanol, 316.45 K | 0.0063
in isopropanol, 319.45 K | 0.0068
in isopropanol, 322.15 K | 0.0075
in isopropanol, 324.85 K | 0.0081
in isopropanol, 326.95 K | 0.0086
in isopropanol, 331.35 K | 0.0095
in isopropanol, 334.35 K | 0.0103
in isopropanol, 337.55 K | 0.0111
in isopropanol, 342.25 K | 0.012
in isopropanol, 344.25 K | 0.0126
in methanol, 288.35 K | 0.0029
in methanol, 292.45 K | 0.0031
in methanol, 295.65 K | 0.0032
in methanol, 298.65 K | 0.0035
in methanol, 299.65 K | 0.0036
in methanol, 302.15 K | 0.004
in methanol, 305.25 K | 0.0044
in methanol, 308.45 K | 0.0047
in methanol, 311.85 K | 0.0049
in methanol, 313.45 K | 0.0051
in methanol, 316.65 K | 0.0056
in methanol, 319.25 K | 0.0056
in methanol, 320.15 K | 0.006
in methanol, 323.15 K | 0.0064
in methanol, 326.05 K | 0.0068
in methanol, 328.15 K | 0.0072
in n-butanol, 309.65 K | 0.0039
in n-butanol, 314.35 K | 0.0044
in n-butanol, 319.95 K | 0.0052
in n-butanol, 324.45 K | 0.0057
in n-butanol, 328.05 K | 0.0062
in n-butanol, 332.15 K | 0.007
in n-butanol, 335.25 K | 0.0076
in n-butanol, 338.05 K | 0.0081
in n-butanol, 340.95 K | 0.0091
in n-butanol, 345.45 K | 0.0099
in n-butanol, 347.95 K | 0.0104
in n-propanol, 303.75 K | 0.0033
in n-propanol, 305.65 K | 0.0039
in n-propanol, 311.65 K | 0.0043
in n-propanol, 315.35 K | 0.0049
in n-propanol, 318.85 K | 0.0054
in n-propanol, 322.55 K | 0.0059
in n-propanol, 326.65 K | 0.0064
in n-propanol, 330.45 K | 0.007
in n-propanol, 337.95 K | 0.0091
in n-propanol, 340.15 K | 0.0093
in n-propanol, 341.95 K | 0.01
in n-propanol, 345.95 K | 0.0113
in n-propanol, 348.15 K | 0.0122
in sec-butanol, 302.45 K | 0.0025
in sec-butanol, 306.35 K | 0.0033
in sec-butanol, 309.25 K | 0.004
in sec-butanol, 314.15 K | 0.0049
in sec-butanol, 317.65 K | 0.0057
in sec-butanol, 322.15 K | 0.0071
in sec-butanol, 326.25 K | 0.0085
in sec-butanol, 331.35 K | 0.0098
in sec-butanol, 339.35 K | 0.0117
in sec-butanol, 342.35 K | 0.0126
in tert-butanol, 303.65 K | 0.0026
in tert-butanol, 307.95 K | 0.0038
in tert-butanol, 312.15 K | 0.0047
in tert-butanol, 315.35 K | 0.0059
in tert-butanol, 318.35 K | 0.0073
in tert-butanol, 321.15 K | 0.0091
in tert-butanol, 324.55 K | 0.0106
in tert-butanol, 328.75 K | 0.0125
in tert-butanol, 331.65 K | 0.0141
in tert-butanol, 334.95 K | 0.016
in tert-butanol, 338.45 K | 0.0177
in tert-butanol, 342.65 K | 0.0194
in tert-butanol, 345.65 K | 0.0203
